Source: ChEMBL document CHEMBL1201862, “PubChem BioAssay data set” (2004)
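Method: 48-hour compound exposure of cells in 96-well plates, five concentrations, linear interpolation of endpoints. GI50: concentration for 50% inhibition of growth.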 Activity calls are given as the source filed them. Rule as the data show it: active = GI50 up to about 1.1 µM and inactive = higher. Residues, ends and D or L forms follow the SMILES beside them. *: point of attachment. Boc = CC(C)(C)OC(=O)*; OBn = c1ccc(CO*)cc1; Bn = c1ccc(C*)cc1

How the values were obtained:
Assay in all cases: growth of human tumour cells (NCI), 48 h
EKVX = test system: EKVX
K562 = test system: K562
M14 = test system: M14
MDA-MB-231 = test system: MDA-MB-231
MDA-N = test system: MDA-N
NCI-H460 = test system: NCI-H460
NCI-H522 = test system: NCI-H522
OVCAR-4 = test system: OVCAR-4
OVCAR-5 = test system: OVCAR-5
RPMI-8226 = test system: RPMI-8226
SK-MEL-5 = test system: SK-MEL-5
SK-OV-3 = test system: SK-OV-3
SR = test system: SR
T47D = test system: T47D
TK-10 = test system: TK-10
U-251 = test system: U-251
UACC-257 = test system: UACC-257
HCC 2998 = test system: HCC 2998
NCI-H226 = test system: NCI-H226

Structure (SMILES) | GI50 (EKVX) | GI50 (K562) | GI50 (M14) | GI50 (MDA-MB-231) | GI50 (MDA-N) | GI50 (NCI-H460) | GI50 (NCI-H522) | GI50 (OVCAR-4) | GI50 (OVCAR-5) | GI50 (RPMI-8226) | GI50 (SK-MEL-5) | GI50 (SK-OV-3) | GI50 (SR) | GI50 (T47D) | GI50 (TK-10) | GI50 (U-251) | GI50 (UACC-257) | GI50 (HCC 2998) | GI50 (NCI-H226)
COc1ccc(C(=O)/C=C/c2ccc(Oc3cc(C(=O)/C=C/c4ccc(O)cc4)c(O)cc3OC)cc2)c(O)c1 [RHUSCHALCONE I] | 4.01 µM (inactive) | 3.66 µM (inactive) | 4.74 µM (inactive) | 3.63 µM (inactive) | 3.48 µM (inactive) | 4.33 µM (inactive) | 2.81 µM (inactive) | 3.23 µM (inactive) | 4.19 µM (inactive) | 1.85 µM (inactive) | 4.02 µM (inactive) | 9.86 µM (inactive) | 1.92 µM (inactive) | 4.99 µM (inactive) | 4.06 µM (inactive) | 3.79 µM (inactive) | 25.5 µM (inactive) | – | –
COc1c2cc(C(C)(C)C)cc1Cc1cccc(c1OCc1cccc([N+](=O)[O-])c1)Cc1cc(C(C)(C)C)cc(c1OC)Cc1cccc(c1OCc1cccc([N+](=O)[O-])c1)Cc1cc(C(C)(C)C)cc(c1OC)Cc1cccc(c1OCc1cccc([N+](=O)[O-])c1)C2 | > 50 µM (inactive) | > 50 µM (inactive) | > 50 µM (inactive) | > 50 µM (inactive) | > 50 µM (inactive) | > 50 µM (inactive) | > 50 µM (inactive) | – | > 50 µM (inactive) | > 50 µM (inactive) | > 50 µM (inactive) | – | > 50 µM (inactive) | > 50 µM (inactive) | – | > 50 µM (inactive) | > 50 µM (inactive) | > 50 µM (inactive) | –
COC(=O)[C@H](Cc1c[nH]c2ccccc12)NC(=O)c1ccc(CNC(=O)/C=C/c2cccc(Oc3ccccc3)c2)cc1 | > 100 µM (inactive) | 63.5 µM (inactive) | 23.2 µM (inactive) | > 100 µM (inactive) | 5.38 µM (inactive) | 83 µM (inactive) | – | 19.5 µM (inactive) | > 100 µM (inactive) | 62.4 µM (inactive) | 30.3 µM (inactive) | > 100 µM (inactive) | 22.4 µM (inactive) | > 100 µM (inactive) | > 100 µM (inactive) | > 100 µM (inactive) | 15.7 µM (inactive) | 89.9 µM (inactive) | > 100 µM (inactive)
Cc1cn(C2CC(O)C(Cn3nncc3Cn3nc(Br)c(=O)[nH]c3=O)O2)c(=O)[nH]c1=O (configuration not stated) | > 100 µM (inactive) | – | > 100 µM (inactive) | > 100 µM (inactive) | > 100 µM (inactive) | – | > 100 µM (inactive) | > 100 µM (inactive) | > 100 µM (inactive) | > 100 µM (inactive) | > 100 µM (inactive) | > 100 µM (inactive) | > 100 µM (inactive) | > 100 µM (inactive) | > 100 µM (inactive) | > 100 µM (inactive) | > 100 µM (inactive) | > 100 µM (inactive) | > 100 µM (inactive)
Cc1c(C#N)c2nnn(-c3ccccc3)c(=O)n2c1-c1ccccc1 | 2.61 µM (inactive) | 0.236 µM (active) | 0.959 µM (active) | 12.3 µM (inactive) | 0.179 µM (active) | 1.92 µM (inactive) | – | > 41.5 µM (inactive) | 1.89 µM (inactive) | 1.24 µM (inactive) | 0.471 µM (active) | 1.41 µM (inactive) | 0.863 µM (active) | 4.18 µM (inactive) | > 59.6 µM (inactive) | – | 25.4 µM (inactive) | 3.34 µM (inactive) | 2.84 µM (inactive)
CC(C)CC(NC(=O)C(Cc1ccccc1)NC(=O)C(COCc1ccccc1)NC(=O)OC(C)(C)C)C(=O)OCc1ccccc1 (stereo not drawn) (Boc-Ser(Bn)-Phe-Leu-OBn; configuration not given here) | 24.8 µM (inactive) | 9.57 µM (inactive) | 37.1 µM (inactive) | 27.1 µM (inactive) | 69 µM (inactive) | 11.9 µM (inactive) | 13.8 µM (inactive) | 42.7 µM (inactive) | 39.4 µM (inactive) | 6.95 µM (inactive) | – | 36.4 µM (inactive) | 20.2 µM (inactive) | > 100 µM (inactive) | 34 µM (inactive) | 22.3 µM (inactive) | 86.7 µM (inactive) | 14.7 µM (inactive) | –
CC(C)[C@@H]1NC(=O)[C@@H]2N=C(O[C@H]2C)[C@H](C(C)C)NC(=O)C2N=C1O[C@H]2C | > 100 µM (inactive) | > 100 µM (inactive) | > 100 µM (inactive) | > 100 µM (inactive) | > 100 µM (inactive) | > 100 µM (inactive) | > 100 µM (inactive) | > 100 µM (inactive) | > 100 µM (inactive) | > 100 µM (inactive) | > 100 µM (inactive) | – | > 100 µM (inactive) | > 100 µM (inactive) | > 100 µM (inactive) | – | > 100 µM (inactive) | > 100 µM (inactive) | > 100 µM (inactive)
CC(C)CCCC(C)[C@H]1CC[C@H]2NCCCC[C@]12C (some centres not stated) | 2.28 µM (inactive) | 2.01 µM (inactive) | 2.1 µM (inactive) | 2.92 µM (inactive) | 1.96 µM (inactive) | 2.02 µM (inactive) | – | 6.58 µM (inactive) | 2.53 µM (inactive) | 1.92 µM (inactive) | 1.6 µM (inactive) | 14.3 µM (inactive) | 2.07 µM (inactive) | 2.77 µM (inactive) | 4.28 µM (inactive) | 2.4 µM (inactive) | 3.83 µM (inactive) | 1.37 µM (inactive) | 9.14 µM (inactive)
O=C1CC(O)c2c(Br)sc(Br)c21 (configuration not stated) | 10.4 µM (inactive) | 2.8 µM (inactive) | 13.9 µM (inactive) | 15.2 µM (inactive) | 8.81 µM (inactive) | 16.9 µM (inactive) | 8.28 µM (inactive) | – | 21.3 µM (inactive) | 2.47 µM (inactive) | 17.7 µM (inactive) | 16.6 µM (inactive) | 5.25 µM (inactive) | 9.59 µM (inactive) | 3.54 µM (inactive) | 4.54 µM (inactive) | 3.85 µM (inactive) | 6 µM (inactive) | –
COc1cc(/C=C2\N=C(C)N(n3c(-c4ccccc4)nc4ccccc4c3=O)C2=O)cc(OC)c1OC | > 100 µM (inactive) | > 100 µM (inactive) | > 100 µM (inactive) | > 100 µM (inactive) | > 100 µM (inactive) | > 100 µM (inactive) | 46.3 µM (inactive) | – | – | 85.3 µM (inactive) | > 100 µM (inactive) | > 100 µM (inactive) | > 100 µM (inactive) | 82.4 µM (inactive) | > 100 µM (inactive) | – | > 100 µM (inactive) | > 100 µM (inactive) | > 100 µM (inactive)
O=S(=O)(CCC[C@H]1[C@@H](CCOCc2ccccc2)C2CCCN1O2)c1ccccc1 (some centres not stated) | 57.3 µM (inactive) | 63.2 µM (inactive) | > 100 µM (inactive) | > 100 µM (inactive) | > 100 µM (inactive) | > 100 µM (inactive) | > 100 µM (inactive) | > 100 µM (inactive) | > 100 µM (inactive) | – | 43.3 µM (inactive) | > 100 µM (inactive) | > 100 µM (inactive) | 59.2 µM (inactive) | > 100 µM (inactive) | > 100 µM (inactive) | > 100 µM (inactive) | > 100 µM (inactive) | > 100 µM (inactive)
CCOc1cc(/C=N/c2ccc(Oc3ccc(Cl)cc3)c(Cl)c2)ccc1O | 18.5 µM (inactive) | – | 29.8 µM (inactive) | 19.6 µM (inactive) | 25 µM (inactive) | 18.6 µM (inactive) | 13.7 µM (inactive) | 34 µM (inactive) | 28.1 µM (inactive) | 29.7 µM (inactive) | 22.3 µM (inactive) | 26.1 µM (inactive) | 33.2 µM (inactive) | 36.3 µM (inactive) | 43.1 µM (inactive) | 21.7 µM (inactive) | 27.1 µM (inactive) | 19.3 µM (inactive) | 26.9 µM (inactive)
COc1cccc(C2c3cc4c(cc3OC(NNC(N)=O)C2C)OCO4)c1OC (configuration not stated) | 26.7 µM (inactive) | 19.5 µM (inactive) | 17.1 µM (inactive) | 31.7 µM (inactive) | 18 µM (inactive) | 23.1 µM (inactive) | 20.4 µM (inactive) | – | 34.1 µM (inactive) | 13 µM (inactive) | 19.6 µM (inactive) | 34.2 µM (inactive) | 0.431 µM (active) | 27.1 µM (inactive) | 28.9 µM (inactive) | 20 µM (inactive) | 27.3 µM (inactive) | 32 µM (inactive) | 25.3 µM (inactive)
N#CC1=C(S)N(C2OC(CO)C(O)C(O)C2O)C(c2ccccc2)=CC1c1ccccc1 (configuration not stated) | – | 30.1 µM (inactive) | 37.5 µM (inactive) | 64.3 µM (inactive) | 37.2 µM (inactive) | 37.6 µM (inactive) | 50.6 µM (inactive) | 75.9 µM (inactive) | > 100 µM (inactive) | 46.5 µM (inactive) | 19.8 µM (inactive) | – | 35 µM (inactive) | 18.2 µM (inactive) | > 100 µM (inactive) | 43 µM (inactive) | 51.6 µM (inactive) | 18.5 µM (inactive) | 36.2 µM (inactive)
O=C(O)c1ccc(Nc2nc3cc(C(F)(F)F)ccc3n3cccc23)cc1 | 62.4 µM (inactive) | 15.3 µM (inactive) | 25.1 µM (inactive) | 19.7 µM (inactive) | 54.6 µM (inactive) | 16.1 µM (inactive) | 23.4 µM (inactive) | – | 40.8 µM (inactive) | 12.5 µM (inactive) | 17.1 µM (inactive) | 40.1 µM (inactive) | 14.3 µM (inactive) | 17.3 µM (inactive) | 28.2 µM (inactive) | 21.3 µM (inactive) | 30.2 µM (inactive) | 15.7 µM (inactive) | –
